Consider two molecules from paper PMC4489319 (ACS Infectious Diseases, 2015).

Test [1] addresses ChsE4-ChsE5 (Mycobacterium tuberculosis, UniProt I6YCA3).
Test [2] deals with T1, ChsE4 (Rv3504, formerly FadE26), N-terminal His6 tag (Mycobacterium tuberculosis H37Rv, UniProt I6YCA3 1-400).
T1 sequence: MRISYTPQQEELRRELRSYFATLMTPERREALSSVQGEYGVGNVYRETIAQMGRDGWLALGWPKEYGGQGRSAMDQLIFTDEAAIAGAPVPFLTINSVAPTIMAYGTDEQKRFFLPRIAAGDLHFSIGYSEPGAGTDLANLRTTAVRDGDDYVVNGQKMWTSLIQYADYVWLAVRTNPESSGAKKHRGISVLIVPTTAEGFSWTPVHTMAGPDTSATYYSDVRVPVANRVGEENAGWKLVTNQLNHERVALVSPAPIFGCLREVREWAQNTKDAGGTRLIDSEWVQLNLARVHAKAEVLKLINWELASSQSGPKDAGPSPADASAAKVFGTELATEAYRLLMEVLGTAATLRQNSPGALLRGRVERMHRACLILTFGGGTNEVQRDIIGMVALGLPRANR
The experiment in a line: AUC + other: LC/UV/MS.

One may read the KM as the concentration of substrate that gives half-maximal velocity.

For `CC(CCC[C@@H](C)[C@H]1CC[C@H]2[C@@H]3CCC4=CC(=O)CC[C@]4(C)[C@H]3CC[C@]12C)C(=O)SCCNC(=O)CCNC(=O)[C@H](O)C(C)(C)COP(=O)(O)OP(=O)(O)OC[C@H]1O[C@@H](n2cnc3c(N)ncnc32)[C@H](O)[C@@H]1OP(=O)(O)O` (some centres unmarked) [3-OCS-CoA], the “KM” value in test [1] was 20 ± 2.7 µM.

B1: ChsE5 (Rv3505, formerly FadE27) (enzyme)
chain: MDFTTTEAAQDLGGLVDTIVDAVCTPEHQRELDKLEQRFDRELWRKLIDAGILSSAAPESLGGDGFGVLEQVAVLVALGHQLAAVPYLESVVLAAGALARFGSPELQQGWGVSAVSGDRILTVALDGEMGEGPVQAAGTGHGYRLTGTRTQVGYGPVADAFLVPAETDSGAAVFLVAAGDPGVAVTALATTGLGSVGHLELNGAKVDAARRVGGTDVAVWLGTLSTLSRTAFQLGVLERGLQMTAEYARTREQFDRPIGSFQAVGQRLADGYIDVKGLRLTLTQAAWRVAEDSLASRECPQPADIDVATAGFWAAEAGHRVAHTIVHVHGGVGVDTDHPVHRYFLAAKQTEFALGGATGQLRRIGRELAETPA
As for B1, in test [2], the binding result is recorded as “binds”.
